In patent US20260345526A1, “Amphenicol Adjuvant Improves Bioavailability and Efficacy” (priority 2023, published 2026):
Several values for one entry are separate records, joined by “and”; a condition that tells them apart may be missing. Equal entries are not always repeated.

Experiments:
[1] = Plasma concentration of florfenicol over time; type: in vivo, coho salmon
Description: FIG. 3. Plasma concentration of florfenicol over time: distribution of levels of plasma florfenicol. Y axis=Florfenicol plasma concentration (g/L). X axis=time (t=0, 5 days and 12 days). For each of the three days reported, the left bar is for fish treated with florfenicol alone, the right bar is for fish treated with florfenicol and also fed andrographolide.
(§1) Odd-numbered cages received feed medicated with both florfenicol and with andrographolide (0.044 kg andrographolide per ton of feed) for 15 days. Even-numbered cages received feed medicated with only florfenicol. X Axis=day; Y axis (left)=accumulated mortality; Y axis (right)=periodic mortality. For each period, the left bar is florfenicol alone, the right bar is florfenicol and andrographolide. For cumulative mortality, the upper line (at date #5) is florfenicol alone, the lower line is florfenicol and andrographolide.

coho salmon [2] = assay: Mortality and cause of death in coho salmon; type: in vivo
Description: FIG. 4 measures accumulated mortality over 14 days for coho salmon treated with florfenicol alone and combined with andrographolide.
as §1
In addition, it changes the causes of mortality. Table 2 compares the cause of death for the two groups.

[3] = Florfenicol residue in muscle of coho salmon after treatment (Table 1); type: in vivo; parameters: florfenicol (residue): unit not given here; conditions: for florfenicol (residue): florfenicol 20 mg/kg
Procedure: Florfenicol (“FF”) was administered at a dose of 20 mg/kg at 15 days and at 30 days before harvesting. Andrographolide and seaweed powder were mixed with conventional fish feed at a dose of 1.056 kg seaweed powder and 0.044 kg andrographolide (“NATCONTROL”) per ton of feed. The NORMAL group corresponds to fish fed antibiotic without andrographolide.
So the farmer can treat with antibiotic closer to harvest, and harvested fish have far less antibiotic residue in their meat. […] This enables one to use a smaller dose of antibiotic to achieve the same effect. The residues of florfenicol at various days post-treatment indicate a more-rapid metabolization of florfenicol in fish muscle receiving andrographolide (<24 or not detected).

P. salmonis = assay: Minimum inhibitory concentration of florfenicol on P. salmonis in infected SHK-1 cells; type: cell-based
Procedure: FIGS. 1 and 2. Cytotoxicity of andrographolide sodium bisulfite (PubChem CID: 133555830, “AP1”) and andrographolide sulphonate (PubChem CID: 72191954, “AP2”) in combination with florfenicol in SHK-1 cells treated and infected with P. salmonis. Cells were treated with AP1 (FIG. 1) and AP2 (FIG. 2) at 4.6 and 9 ng/mL and florfenicol in the range of 0,125; 0,250; 0.5 and […]. LDH analysis was done day 12 post-infection. Cells+Ps, cells infected without treatment; Vehicle+Ps, cells infected and treated with ethanol. “Flo sin AP” means florfenicol without an andrographolide; “Flo+AP” means florfenicol with an andrographolide. The percentage of cytotoxicity was calculated with respect to the control of total lysis of cells and the negative control (cells without treatment and infection) with the control florfenicol without AP. […] ANOVA y Fisher.
The effect of andrographolide on the antibiotic action of florfenicol, was corroborated by LDH in the supernatant in cells with different treatments showing the synergistic effect of andrographolide (AP) in the range of 0.125; 0.25 and 0.5 μg/mL of the antibiotic.

coho salmon [4] = assay: Quality of the fish at harvest time; type: in vivo
Description: as §1
Table 3 compares the quality of the fish at harvest time. Premium Quality (“PRM”) fish have an absence of skin lesions and adequate body weight. A total of 332,315 fish were treated with florfenicol+andrographolide (“Impares Nat Control”) and 301,334 fish were treated with florfenicol alone (“Pares Normal”).

[5] = andrographolide co-fed with florfenicol, coho salmon
[6] = florfenicol combined with the andrographolide (AP1 or AP2)
[7] = absence of skin lesions and adequate body weight

In the case of C=C1CC[C@@H]2[C@](C)(CO)[C@H](O)CC[C@@]2(C)[C@@H]1C/C=C1/C(=O)OC[C@H]1O [andrographolide], the “antibiotic (florfenicol) concentration in plasma” value [1, 5] was “increases antibiotic concentration in plasma”, the “average plasma florfenicol levels” value ([1]; fish treated with florfenicol and fed andrographolide vs florfenicol alone, 5 and 12 days) was “higher average plasma florfenicol levels” and the mortality (coho salmon [2]; andrographolide with florfenicol vs florfenicol alone) was “decreases mortality”. The “in vivo metabolism and clearance of florfenicol” value [3, 5] was “hastens the in vivo metabolism and clearance of florfenicol”.
For andrographolide sulphonate [AP2], the “minimum inhibitory concentration of florfenicol” value (“minimum inhibitory concentration” for short) (P. salmonis; [6]) was 0.25 µg/mL.
With C=C1CCC2[C@](C)(CO)[C@H](O)CC[C@@]2(C)[C@@H]1CC(C1C(=O)OC[C@H]1O)S(=O)(=O)[O-].[Na+] (stereo partly shown) [AP1, andrographolide sodium bisulfite] the “minimum inhibitory concentration” value (P. salmonis; [6]) was 0.25 µg/mL.
For CS(=O)(=O)c1ccc([C@@H](O)[C@@H](CF)NC(=O)C(Cl)Cl)cc1 [florfenicol], the “minimum inhibitory concentration” value (P. salmonis; without andrographolide) was 0.5 µg/mL, the “FA fish, %” value (coho salmon [4]) was 4.65% and the “FA fish, No” value (coho salmon [4]) was 14012 No. The “GA1 fish, %” value (coho salmon [4]) was 17.87%, the “GA1 fish, No” value (coho salmon [4]) was 53835 No and the “GA2 fish, %” value (coho salmon [4]) was 1.426%. The “GA2 fish, No” value (coho salmon [4]) was 4297 No, the “percentage of Premium Quality fish” value (coho salmon [4]) was 76.1% and the “PRM (Premium Quality) fish, %” value (coho salmon [4]; [7]) was 76.06%. The “PRM (Premium Quality) fish, No” value (coho salmon [4]; [7]) was 229190 No, the “Cause of death: Mechanical damage” value (coho salmon [2]; Example 3) was 41.6 % of Total Deaths and the “Cause of death: No apparent cause” value (coho salmon [2]; Example 3) was 9.3 % of Total Deaths. The “Cause of death: Runt (very small) fish” value (coho salmon [2]; Example 3) was 0 % of Total Deaths, the “Cause of death: SRS (skin lesions)” value (coho salmon [2]; Example 3) was 25.0 % of Total Deaths and the “Time of death: In holding pen before harvesting” value (coho salmon [2]; Example 3) was 10.9 % of Total Deaths. For the same molecule, the “florfenicol (residue)” value ([3]; Cage No. 101, andrographolide diet, Test Report No. 44.217-22) was <24, the “florfenicol (residue)” value ([3]; Cage No. 102, normal diet (no andrographolide), Test Report No. 44.218-22) was 270 and 363 and 502 and the “florfenicol (residue)” value ([3]; Cage No. 103, andrographolide diet, Test Report No. 44.215-22) was <24. The “residues of florfenicol in fish muscle” value ([3]; fish receiving andrographolide, various days post-treatment) was < 24.
